Data published in patent US7985731B2, “Sugar chain added GLP-1 peptide” (Otsuka Chemical Holdings Co., Ltd., priority 2007, dated 2011).
Peptide text beside a SMILES is read from it. * marks the point of attachment. X1 = CC(=O)N[C@@H]1[C@@H](O)[C@H](O[C@@H]2O[C@H](CO)[C@@H](O[C@@H]3O[C@H](CO[C@H]4O[C@H](CO)[C@@H](O)[C@H](O)[C@@H]4O[C@@H]4O[C@H](CO)[C@@H](O[C@@H]5O[C@H](CO[C@]6(C(=O)O)C[C@H](O)[C@@H](NC(C)=O)[C@H]([C@H](O)[C@H](O)CO)O6)[C@H](O)[C@H](O)[C@H]5O)[C@H](O)[C@H]4NC(C)=O)[C@@H](O)[C@H](O[C@H]4O[C@H](CO)[C@@H](O)[C@H](O)[C@@H]4O[C@@H]4O[C@H](CO)[C@@H](O[C@@H]5O[C@H](CO[C@]6(C(=O)O)C[C@H](O)[C@@H](NC(C)=O)[C@H]([C@H](O)[C@H](O)CO)O6)[C@H](O)[C@H](O)[C@H]5O)[C@H](O)[C@H]4NC(C)=O)[C@@H]3O)[C@H](O)[C@H]2NC(C)=O)[C@@H](CO)O[C@H]1NC(=O)C*

What was measured:
C57BL/6JJcl mice = assay: Test Example 7: Oral Glucose Tolerance Test (OGTT); type: in vivo
Protocol: After 30 minutes, a glucose solution was orally administered at a dose of 1 mg/g. Blood was collected from the orbits before the glucose administration and 30 minutes, 60 minutes and 120 minutes after the glucose administration. Blood-sugar levels were measured using ACCU-CHEK Aviva (Roche Diagnostics).
After the oral administration of the glucose solution to the mice fasted overnight, blood was collected over time, and blood-sugar levels were measured.
The correlation between the oligosaccharide chain structure and the activity was studied in mouse OGTT.

[1] = tested on: db/db (BKS.Cg-+Lepr db/+Lepr db/Jcl) mice; assay: Test Example 8: effect of lowering blood-sugar levels in diabetes model mice; type: in vivo; settings: 9 nmol/kg intraperitoneal
Protocol: The oligosaccharide chain added GLP-1 peptide prepared in Example 2, 3, 4, 21 or 23 or the GLP-1 prepared in Comparative Example 1 in a PBS solution (9 nmol/10 ml) was intraperitoneally administered at a dose of 10 ml/kg to BKS.Cg−+Lepr^db/+Lepr^db/Jcl mice (10 week old, male). Blood was collected from the orbits before the compound administration and 30 minutes, 60 minutes, 120 minutes, 180 minutes and 300 minutes after the compound administration. Blood-sugar levels were measured using ACCU-CHEK Aviva (Roche Diagnostics).
The db/db (BKS.Cg−+Lepr^db/+Lepr^db/Jcl) mice serving as diabetes model mice have a mutation in a receptor of leptin which is anorexigenic/energy metabolism-accelerating hormone and develops conditions such as obesity or hyperglycemia.
Blood-sugar levels were measured over time, and their effects of lowering blood-sugar levels were compared with that of the GLP-1 without oligosaccharide chain addition of Comparative Example 1.

[2] = 9 nmol/kg intraperitoneal 30 minutes before glucose 1 mg/g oral

Row | SMILES | effect of suppressing rise in blood-sugar levels in OGTT (C57BL/6JJcl mice; [2]) | effect of lowering blood-sugar levels in db/db mice ([1]; 10-week-old male mice) | durability of effect of lowering blood-sugar levels in db/db mice ([1]; up to 300 minutes) | efficacy relative to 30Cys GLP-1-disialo and 36Cys GLP-1-disialo at the same dose in OGTT (C57BL/6JJcl mice; 0.9 nmol/kg intraperitoneal) | dose dependence of activity of suppressing rise in blood-sugar levels in OGTT (C57BL/6JJcl mice; doses 0.9 nmol/kg and 0.09 nmol/kg intraperitoneal) | effect of suppressing rise in blood-sugar levels in OGTT (C57BL/6JJcl mice; 0.9 nmol/kg intraperitoneal) | activity of suppressing rise in blood-sugar levels in OGTT relative to GLP-1 (times) (C57BL/6JJcl mice; from doses giving equivalent effect, GLP-1 at 9 nmol/kg)
1 | CC[C@H](C)[C@H](NC(=O)[C@H](Cc1ccccc1)NC(=O)[C@H](CCC(=O)O)NC(=O)[C@H](CCCCN)NC(=O)[C@H](C)NC(=O)[C@H](C)NC(=O)[C@H](CCC(N)=O)NC(=O)CNC(=O)[C@H](CCC(=O)O)NC(=O)[C@H](CC(C)C)NC(=O)[C@H](Cc1ccc(O)cc1)NC(=O)[C@H](CSCC(=O)N[C@@H]1O[C@H](CO)[C@@H](O[C@@H]2O[C@H](CO)[C@@H](O[C@@H]3O[C@H](CO[C@H]4O[C@H](CO)[C@@H](O)[C@H](O)[C@@H]4O[C@@H]4O[C@H](CO)[C@@H](O[C@@H]5O[C@H](CO[C@]6(C(=O)O)C[C@H](O)[C@@H](NC(C)=O)[C@H]([C@H](O)[C@H](O)CO)O6)[C@H](O)[C@H](O)[C@H]5O)[C@H](O)[C@H]4NC(C)=O)[C@@H](O)[C@H](O[C@H]4O[C@H](CO)[C@@H](O)[C@H](O)[C@@H]4O[C@@H]4O[C@H](CO)[C@@H](O[C@@H]5O[C@H](CO[C@]6(C(=O)O)C[C@H](O)[C@@H](NC(C)=O)[C@H]([C@H](O)[C@H](O)CO)O6)[C@H](O)[C@H](O)[C@H]5O)[C@H](O)[C@H]4NC(C)=O)[C@@H]3O)[C@H](O)[C@H]2NC(C)=O)[C@H](O)[C@H]1NC(C)=O)NC(=O)[C@H](CO)NC(=O)[C@@H](NC(=O)[C@H](CC(=O)O)NC(=O)[C@H](CO)NC(=O)[C@@H](NC(=O)[C@H](Cc1ccccc1)NC(=O)[C@@H](NC(=O)CNC(=O)[C@H](CCC(=O)O)NC(=O)[C@H](C)NC(=O)[C@@H](N)Cc1c[nH]cn1)[C@@H](C)O)[C@@H](C)O)C(C)C)C(=O)N[C@@H](C)C(=O)N[C@@H](Cc1c[nH]c2ccccc12)C(=O)N[C@@H](CC(C)C)C(=O)N[C@H](C(=O)N[C@@H](CCCCN)C(=O)NCC(=O)N[C@@H](CCCNC(=N)N)C(=O)NCC(=O)O)C(C)C [Example 1, 18Cys GLP-1-disialo] (H-HAEGTFTSDVSC(X1)YLEGQAAKEFIAWLVKGRG-OH) | strong effect of suppressing rise in blood-sugar levels |  |  |  |  |  | 
2 | CC[C@H](C)[C@H](NC(=O)[C@H](Cc1ccccc1)NC(=O)[C@H](CCC(=O)O)NC(=O)[C@H](CCCCN)NC(=O)[C@H](C)NC(=O)[C@H](C)NC(=O)[C@H](CCC(N)=O)NC(=O)CNC(=O)[C@H](CCC(=O)O)NC(=O)[C@H](CSCC(=O)N[C@@H]1O[C@H](CO)[C@@H](O[C@@H]2O[C@H](CO)[C@@H](O[C@@H]3O[C@H](CO[C@H]4O[C@H](CO)[C@@H](O)[C@H](O)[C@@H]4O[C@@H]4O[C@H](CO)[C@@H](O[C@@H]5O[C@H](CO[C@]6(C(=O)O)C[C@H](O)[C@@H](NC(C)=O)[C@H]([C@H](O)[C@H](O)CO)O6)[C@H](O)[C@H](O)[C@H]5O)[C@H](O)[C@H]4NC(C)=O)[C@@H](O)[C@H](O[C@H]4O[C@H](CO)[C@@H](O)[C@H](O)[C@@H]4O[C@@H]4O[C@H](CO)[C@@H](O[C@@H]5O[C@H](CO[C@]6(C(=O)O)C[C@H](O)[C@@H](NC(C)=O)[C@H]([C@H](O)[C@H](O)CO)O6)[C@H](O)[C@H](O)[C@H]5O)[C@H](O)[C@H]4NC(C)=O)[C@@H]3O)[C@H](O)[C@H]2NC(C)=O)[C@H](O)[C@H]1NC(C)=O)NC(=O)[C@H](Cc1ccc(O)cc1)NC(=O)[C@H](CO)NC(=O)[C@H](CO)NC(=O)[C@@H](NC(=O)[C@H](CC(=O)O)NC(=O)[C@H](CO)NC(=O)[C@@H](NC(=O)[C@H](Cc1ccccc1)NC(=O)[C@@H](NC(=O)CNC(=O)[C@H](CCC(=O)O)NC(=O)[C@H](C)NC(=O)[C@@H](N)Cc1c[nH]cn1)[C@@H](C)O)[C@@H](C)O)C(C)C)C(=O)N[C@@H](C)C(=O)N[C@@H](Cc1c[nH]c2ccccc12)C(=O)N[C@@H](CC(C)C)C(=O)N[C@H](C(=O)N[C@@H](CCCCN)C(=O)NCC(=O)N[C@@H](CCCNC(=N)N)C(=O)NCC(=O)O)C(C)C [Example 16, 20Cys GLP-1-disialo] (H-HAEGTFTSDVSSYC(X1)EGQAAKEFIAWLVKGRG-OH) | strong effect of suppressing rise in blood-sugar levels |  |  |  |  |  | 
3 | CC[C@H](C)[C@H](NC(=O)[C@H](Cc1ccccc1)NC(=O)[C@H](CCC(=O)O)NC(=O)[C@H](CSCC(=O)N[C@@H]1O[C@H](CO)[C@@H](O[C@@H]2O[C@H](CO)[C@@H](O[C@@H]3O[C@H](CO[C@H]4O[C@H](CO)[C@@H](O)[C@H](O)[C@@H]4O[C@@H]4O[C@H](CO)[C@@H](O[C@@H]5O[C@H](CO[C@]6(C(=O)O)C[C@H](O)[C@@H](NC(C)=O)[C@H]([C@H](O)[C@H](O)CO)O6)[C@H](O)[C@H](O)[C@H]5O)[C@H](O)[C@H]4NC(C)=O)[C@@H](O)[C@H](O[C@H]4O[C@H](CO)[C@@H](O)[C@H](O)[C@@H]4O[C@@H]4O[C@H](CO)[C@@H](O[C@@H]5O[C@H](CO[C@]6(C(=O)O)C[C@H](O)[C@@H](NC(C)=O)[C@H]([C@H](O)[C@H](O)CO)O6)[C@H](O)[C@H](O)[C@H]5O)[C@H](O)[C@H]4NC(C)=O)[C@@H]3O)[C@H](O)[C@H]2NC(C)=O)[C@H](O)[C@H]1NC(C)=O)NC(=O)[C@H](C)NC(=O)[C@H](C)NC(=O)[C@H](CCC(N)=O)NC(=O)CNC(=O)[C@H](CCC(=O)O)NC(=O)[C@H](CC(C)C)NC(=O)[C@H](Cc1ccc(O)cc1)NC(=O)[C@H](CO)NC(=O)[C@H](CO)NC(=O)[C@@H](NC(=O)[C@H](CC(=O)O)NC(=O)[C@H](CO)NC(=O)[C@@H](NC(=O)[C@H](Cc1ccccc1)NC(=O)[C@@H](NC(=O)CNC(=O)[C@H](CCC(=O)O)NC(=O)[C@H](C)NC(=O)[C@@H](N)Cc1c[nH]cn1)[C@@H](C)O)[C@@H](C)O)C(C)C)C(=O)N[C@@H](C)C(=O)N[C@@H](Cc1c[nH]c2ccccc12)C(=O)N[C@@H](CC(C)C)C(=O)N[C@H](C(=O)N[C@@H](CCCCN)C(=O)NCC(=O)N[C@@H](CCCNC(=N)N)C(=O)NCC(=O)O)C(C)C [Example 3, 26Cys GLP-1-disialo] | strong effect of suppressing rise in blood-sugar levels | strong effect of lowering blood-sugar levels | effects of lowering blood-sugar levels were slightly weakened over time | about ½ | dose-dependent activity of suppressing rise in blood-sugar levels |  | 
4 | CC[C@H](C)[C@H](NC(=O)[C@H](Cc1ccccc1)NC(=O)[C@H](CCC(=O)O)NC(=O)[C@H](CCCCN)NC(=O)[C@H](C)NC(=O)[C@H](C)NC(=O)[C@H](CCC(N)=O)NC(=O)CNC(=O)[C@H](CCC(=O)O)NC(=O)[C@H](CC(C)C)NC(=O)[C@H](Cc1ccc(O)cc1)NC(=O)[C@H](CSCC(=O)N[C@@H]1O[C@H](CO)[C@@H](O[C@@H]2O[C@H](CO)[C@@H](O[C@@H]3O[C@H](CO[C@H]4O[C@H](CO)[C@@H](O)[C@H](O)[C@@H]4O[C@@H]4O[C@H](CO)[C@@H](O[C@@H]5O[C@H](CO[C@]6(C(=O)O)C[C@H](O)[C@@H](NC(C)=O)[C@H]([C@H](O)[C@H](O)CO)O6)[C@H](O)[C@H](O)[C@H]5O)[C@H](O)[C@H]4NC(C)=O)[C@@H](O)[C@H](O[C@H]4O[C@H](CO)[C@@H](O)[C@H](O)[C@@H]4O[C@@H]4O[C@H](CO)[C@@H](O[C@@H]5O[C@H](CO[C@]6(C(=O)O)C[C@H](O)[C@@H](NC(C)=O)[C@H]([C@H](O)[C@H](O)CO)O6)[C@H](O)[C@H](O)[C@H]5O)[C@H](O)[C@H]4NC(C)=O)[C@@H]3O)[C@H](O)[C@H]2NC(C)=O)[C@H](O)[C@H]1NC(C)=O)NC(=O)[C@H](CO)NC(=O)[C@@H](NC(=O)[C@H](CC(=O)O)NC(=O)[C@H](CO)NC(=O)[C@@H](NC(=O)[C@H](Cc1ccccc1)NC(=O)[C@@H](NC(=O)CNC(=O)[C@H](CCC(=O)O)NC(=O)[C@H](C)NC(=O)[C@@H](N)Cc1c[nH]cn1)[C@@H](C)O)[C@@H](C)O)C(C)C)C(=O)N[C@@H](C)C(=O)N[C@@H](Cc1c[nH]c2ccccc12)C(=O)N[C@@H](CC(C)C)C(=O)N[C@H](C(=O)N[C@@H](CCCCN)C(=O)NCC(=O)N[C@@H](CSCC(=O)N[C@@H]1O[C@H](CO)[C@@H](O[C@@H]2O[C@H](CO)[C@@H](O[C@@H]3O[C@H](CO[C@H]4O[C@H](CO)[C@@H](O)[C@H](O)[C@@H]4O[C@@H]4O[C@H](CO)[C@@H](O[C@@H]5O[C@H](CO[C@]6(C(=O)O)C[C@H](O)[C@@H](NC(C)=O)[C@H]([C@H](O)[C@H](O)CO)O6)[C@H](O)[C@H](O)[C@H]5O)[C@H](O)[C@H]4NC(C)=O)[C@@H](O)[C@H](O[C@H]4O[C@H](CO)[C@@H](O)[C@H](O)[C@@H]4O[C@@H]4O[C@H](CO)[C@@H](O[C@@H]5O[C@H](CO[C@]6(C(=O)O)C[C@H](O)[C@@H](NC(C)=O)[C@H]([C@H](O)[C@H](O)CO)O6)[C@H](O)[C@H](O)[C@H]5O)[C@H](O)[C@H]4NC(C)=O)[C@@H]3O)[C@H](O)[C@H]2NC(C)=O)[C@H](O)[C@H]1NC(C)=O)C(=O)NCC(=O)O)C(C)C [Example 49, 18,36Cys GLP-1-disialo] | effect almost equivalent to that of the 36Cys GLP-1-disialo |  |  |  |  | almost equivalent to that of the GLP-1 at a dose of 9 nmol/kg | about 10 times
